Peptide text beside a SMILES is read from it.
Set-up: AUC: unit not given beside the values
Description: The pH of simulated gastric fluid (SGF, 0.15 M NaCl, pH 2.5) was increased to 7.5 with […] (40 mM), and the following compounds were added to adjust the pH to 6.8 and simulate a duodenal-jejunal environment and create simulated small intestinal fluid (SIF): (i) a bile salt mixture containing equimolar quantities (0.125 M) of sodium taurocholate and glycodeoxycholic acid in NaHC03 (1 M), (ii) solutions of pancreatin from porcine pancreas (9 mg/mL) in water was prepared and added at approximately physiological ratios. The pH was adjusted to 6.8 with HCl (0.1 M). Peptides were dissolved in SIF at a final peptide concentration of 50 µM. Aliquots (1 mL) were prepared for sampling at different time points. Simulated intestinal digestion was carried out at 37°C, and aliquots (1 mL) were taken at 0, 5, 15, and 60 min after the start of the experiment. After peptide hydrolysis, digestive enzymes were inactivated at 95°C for 15 min and samples were cooled immediately on ice water and stored at -20°C until further analysis.
Quantification of dipeptides derived from digestion were performed using a liquid chromatography multiple reaction ion monitoring-mass spectrometry (LC-MRM-MS) method as described van Platerink CJ, Janssen HG, Horsten R, Haverkamp J. Quantification of ACE inhibiting peptides in human plasma using high performance liquid chromatography-mass spectrometry. J Chromatogr B Analyt Technol Biomed Life Sci 2006,830:151-157. Peptide separation was performed on an Atlantis Hilic Silica column (2.1 x 150 mm, 3 µm particle size) and a Micromass Quattro-II (Milford MA, USA) with HP1100LC system (Hewlett-Packard, USA). The gradient started at 100% 0.1 % trifluoro acetic acid in Milli-Q water and ended at 70% 0.1% trifluoro acetic acid in acetonitrile. To support the ionization, a 70/30 mixture of propionic acid and propanol-2 was added postcolumn at a flow rate of […]. All analyses were conducted on an Alliance 2795 HPLC (Waters, Milford MA, USA) combined with a Quattro Premier triple quadrupole mass spectrometer from the same supplier.
An intestinal stability data set consisting of 228 dipeptides was generated based on the results from the simulated digestion experiments. The area under the time - peptide concentration curve was calculated and used for further analysis and modelling. An ACE inhibitory dipeptide database consisting of 228 dipeptides was constructed.
For each peptide the relative stability (in % of initial dipeptide concentration) was plotted against time and the area under the curve (AUC) was calculated.

Structure (SMILES) | AUC | intestinal stability (in words)
C[C@@H](O)[C@H](NC(=O)[C@@H](N)CS)C(=O)O [CT] (H-Cys-Thr-OH) | – | high intestinal stability
N[C@@H](Cc1c[nH]c2ccccc12)C(=O)N[C@@H](CC(=O)O)C(=O)O [WD] (H-Trp-Asp-OH) | – | high intestinal stability
C[C@@H](O)[C@H](NC(=O)[C@@H](N)Cc1c[nH]c2ccccc12)C(=O)O [WT] (H-Trp-Thr-OH) | – | high intestinal stability

The remaining lines, values ahead:

AUC | intestinal stability (in words) | Structure (SMILES)
0 | – | C[C@H](NC(=O)[C@@H](N)CS)C(=O)O [CA] (H-Cys-Ala-OH)
– | high intestinal stability | N[C@@H](Cc1c[nH]c2ccccc12)C(=O)N[C@@H](CO)C(=O)O [WS] (H-Trp-Ser-OH)
– | high intestinal stability | C[C@@H](O)[C@H](NC(=O)[C@@H](N)CC(=O)O)C(=O)O [DT] (H-Asp-Thr-OH)

From patent EP2161028B1, “Food product comprising dipeptides having antihypertensive properties” (Unilever N.V., priority 2008, dated 2011)
